{"source": "ChEMBL document CHEMBL3085665", "about": "“Gallic acid is the major component of grape seed extract that inhibits amyloid fibril formation” (Bioorg Med Chem Lett, 2013)", "key": {"PC-12": {"system": "PC-12", "assay": "Effect on RCM-kappa-casein-induced cytotoxicity against rat PC12 cells at 1:0.1 to 1:0.5 protein to compound molar ratio after 48 hrs by MTT assay", "format": "functional, cell-based"}, "Homo sapiens [1]": {"organism": "Homo sapiens", "assay": "Inhibition of reduced carboxymethylated-kappa-casein (unknown origin) conversion to amyloid fibrils at 1:2 protein to compound molar ratio after 1000 mins by thioflavin T fluorescence assay relative to control"}, "[2]": {"target": "Amyloid-beta precursor protein (Homo sapiens) (UniProt P05067)", "sequence (P05067 whole entry)": "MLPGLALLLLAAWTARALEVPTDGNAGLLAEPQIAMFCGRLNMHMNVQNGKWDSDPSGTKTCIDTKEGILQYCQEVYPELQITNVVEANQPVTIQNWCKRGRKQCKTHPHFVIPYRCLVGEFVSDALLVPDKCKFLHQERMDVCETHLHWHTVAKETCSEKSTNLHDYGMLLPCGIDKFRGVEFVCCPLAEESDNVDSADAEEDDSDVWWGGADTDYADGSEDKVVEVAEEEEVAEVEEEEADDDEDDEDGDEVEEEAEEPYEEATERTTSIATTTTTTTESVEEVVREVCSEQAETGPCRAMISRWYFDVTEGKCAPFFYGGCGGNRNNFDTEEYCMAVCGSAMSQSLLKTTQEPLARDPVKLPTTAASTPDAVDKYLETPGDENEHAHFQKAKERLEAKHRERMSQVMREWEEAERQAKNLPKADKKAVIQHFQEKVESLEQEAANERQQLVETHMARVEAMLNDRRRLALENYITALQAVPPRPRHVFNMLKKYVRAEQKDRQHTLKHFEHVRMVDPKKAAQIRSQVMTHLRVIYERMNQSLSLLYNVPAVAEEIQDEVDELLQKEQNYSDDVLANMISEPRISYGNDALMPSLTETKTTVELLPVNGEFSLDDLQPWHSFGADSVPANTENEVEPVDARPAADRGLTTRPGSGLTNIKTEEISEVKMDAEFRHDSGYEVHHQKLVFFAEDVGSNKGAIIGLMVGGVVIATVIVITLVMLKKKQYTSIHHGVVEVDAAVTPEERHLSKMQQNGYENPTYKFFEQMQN", "assay": "Inhibition of amyloid beta (1 to 40) (unknown origin) aggregation at 1:0.1 to 1:2 protein to compound molar ratio up to 10 hrs by thioflavin T fluorescence assay"}, "Homo sapiens [3]": {"organism": "Homo sapiens", "assay": "Binding affinity to reduced carboxymethylated-kappa-casein (unknown origin) at 1:2 protein to compound molar ratio after 20 hrs by far-UV-CD spectroscopic analysis"}, "Homo sapiens [4]": {"organism": "Homo sapiens", "assay": "Inhibition of reduced carboxymethylated-kappa-casein (unknown origin) conversion to amyloid fibrils at 1:1 protein to compound molar ratio after 1000 mins by thioflavin T fluorescence assay relative to control"}, "Homo sapiens [5]": {"organism": "Homo sapiens", "assay": "Inhibition of reduced carboxymethylated-kappa-casein (unknown origin) conversion to amyloid fibrils at 1:0.5 protein to compound molar ratio after 1000 mins by thioflavin T fluorescence assay relative to control"}, "Homo sapiens [6]": {"organism": "Homo sapiens", "assay": "Inhibition of reduced carboxymethylated-kappa-casein (unknown origin) conversion to amyloid fibrils assessed as decrease in number of long, unbranched and mature amyloid fibrils at 1:2 protein to compound molar ratio after 1000 mins by transmission electron microscopic analysis"}, "[7]": {"target": "Amyloid-beta precursor protein (Homo sapiens) (UniProt P05067)", "assay": "Inhibition of amyloid beta (1 to 40) (unknown origin) aggregation at 1:0.1 to 1:2 protein to compound molar ratio after 20 hrs by transmission electron microscopic analysis"}, "[8]": {"assay": "(§1) Inhibition of reduced carboxymethylated-kappa-casein (unknown origin) conversion to amyloid fibrils after 1000 mins by thioflavin T fluorescence assay", "design": "species or system Homo sapiens"}, "Homo sapiens [9]": {"organism": "Homo sapiens", "assay": "as §1"}, "Homo sapiens [10]": {"organism": "Homo sapiens", "assay": "Inhibition of reduced carboxymethylated-kappa-casein (unknown origin) conversion to amyloid fibrils at 1:0.1 protein to compound molar ratio after 1000 mins by thioflavin T fluorescence assay relative to control"}, "[11]": {"assay": "Effect on RCM-kappa-casein-induced cytotoxicity against rat PC12 cells assessed as increase in cell viability at 1:2 protein to compound molar ratio after 48 hrs by MTT assay relative to control", "format": "functional, PC-12"}, "[12]": {"assay": "Reduction in RCM-kappa-casein-induced cytotoxicity against rat PC12 cells after 48 hrs by MTT assay", "format": "functional, cell-based", "conditions": "PC-12"}, "[13]": {"assay": "Cytotoxicity against rat PC12 cells assessed as cell viability at 5 uM after 48 hrs by MTT assay", "format": "cell-based", "conditions": "pc-12, 48 h"}, "Homo sapiens [14]": {"organism": "Homo sapiens", "assay": "Inhibition of reduced carboxymethylated-kappa-casein (unknown origin) conversion to amyloid fibrils at 0.1:1 to 2:1 compound to protein molar ratio after 1000 mins by thioflavin T fluorescence assay"}}, "note": "Activity calls are given as the source filed them. The calls are words filed in the database; no cut-off is given here.", "data": [{"smiles": "O=C(O)c1cc(O)c(O)c(O)c1", "note": "[GALLIC ACID]", "values": [{"measurement": "Activity", "setting": "PC-12", "value": "inactive"}, {"measurement": "inhibition", "setting": "Homo sapiens [1]", "value": 98, "unit": "%"}, {"measurement": "inhibition", "setting": "[2]", "value": "Active"}, {"measurement": "Activity", "setting": "Homo sapiens [3]", "value": "Active"}, {"measurement": "inhibition", "setting": "Homo sapiens [4]", "value": 87, "unit": "%"}, {"measurement": "inhibition", "setting": "Homo sapiens [5]", "value": 54, "unit": "%"}, {"measurement": "inhibition", "setting": "Homo sapiens [6]", "value": "Active"}, {"measurement": "inhibition", "setting": "[7]", "value": "Active"}, {"measurement": "IC50", "setting": "[8]", "value": 7.7, "unit": "µM"}, {"measurement": "inhibition", "setting": "Homo sapiens [9]", "value": "Dose-dependent effect"}, {"measurement": "inhibition", "setting": "Homo sapiens [10]", "value": 3, "unit": "%"}, {"measurement": "Activity", "setting": "[11]", "value": 88, "unit": "%"}, {"measurement": "Activity", "setting": "[12]", "value": "Dose-dependent effect"}, {"measurement": "Activity", "setting": "[13]", "value": "Non-toxic"}]}, {"smiles": "Oc1cc(O)c2c(c1)OC(c1ccc(O)c(O)c1)C(O)C2", "note": "(configuration not stated)", "values": [{"measurement": "inhibition", "setting": "Homo sapiens [14]", "value": "inactive"}]}, {"smiles": "Oc1cc(O)c2c(c1)O[C@H](c1ccc(O)c(O)c1)[C@H](O)C2", "values": [{"measurement": "inhibition", "setting": "Homo sapiens [14]", "value": "inactive"}]}, {"smiles": "C[C@@H]1O[C@@H](OC[C@H]2O[C@@H](Oc3cc4c(O)cc(O)cc4[o+]c3-c3ccc(O)c(O)c3)[C@H](O)[C@@H](O)[C@@H]2O)[C@H](O)[C@H](O)[C@H]1O", "values": [{"measurement": "inhibition", "setting": "Homo sapiens [1]", "value": 54, "unit": "%"}]}]}
